Assay results taken from US7871999B2, “Substituted thiazoles and their use for producing drugs” (Gruenenthal GmbH, priority 2005, dated 2011).

target: T1, mGluR5 receptor (Sus scrofa, UniProt I3LUI7); experiment: Inhibition of [^3H]-MPEP binding in the mGluR5 receptor binding assay (pig brain homogenate); details: 1 μM test compound, 5 nM [^3H]-MPEP
T1 construct: pig brain hemispheres without medulla, cerebellum and pons ... differential centrifugation at 900×g and 40,000×g
Description: I. Method for Determining the Inhibition of [^3H]-MPEP Binding in the mGluR5 Receptor Binding Assay […]
The batches are then filtered with the assistance of a Brandel Cell Harvester (Brandel, Robotic 9600 model) on Unifilter plates with glass filter mats (Perkin Elmer, order number 6005177) and then washed 3 times with buffer (as above) using 250 μl per sample. The filter plates are then dried for 60 min at 55° C. Then 30 μl of Ultima Gold™ scintillating material (Packard BioScience, order number 6013159) is added per well and after 3 hours the samples are measured using the β counter (Microbeta, Perkin Elmer). Nonspecific binding is determined by the addition of 10 μM MPEP (Tocris, order number 1212).

T1 sequence (I3LUI7 1-1212): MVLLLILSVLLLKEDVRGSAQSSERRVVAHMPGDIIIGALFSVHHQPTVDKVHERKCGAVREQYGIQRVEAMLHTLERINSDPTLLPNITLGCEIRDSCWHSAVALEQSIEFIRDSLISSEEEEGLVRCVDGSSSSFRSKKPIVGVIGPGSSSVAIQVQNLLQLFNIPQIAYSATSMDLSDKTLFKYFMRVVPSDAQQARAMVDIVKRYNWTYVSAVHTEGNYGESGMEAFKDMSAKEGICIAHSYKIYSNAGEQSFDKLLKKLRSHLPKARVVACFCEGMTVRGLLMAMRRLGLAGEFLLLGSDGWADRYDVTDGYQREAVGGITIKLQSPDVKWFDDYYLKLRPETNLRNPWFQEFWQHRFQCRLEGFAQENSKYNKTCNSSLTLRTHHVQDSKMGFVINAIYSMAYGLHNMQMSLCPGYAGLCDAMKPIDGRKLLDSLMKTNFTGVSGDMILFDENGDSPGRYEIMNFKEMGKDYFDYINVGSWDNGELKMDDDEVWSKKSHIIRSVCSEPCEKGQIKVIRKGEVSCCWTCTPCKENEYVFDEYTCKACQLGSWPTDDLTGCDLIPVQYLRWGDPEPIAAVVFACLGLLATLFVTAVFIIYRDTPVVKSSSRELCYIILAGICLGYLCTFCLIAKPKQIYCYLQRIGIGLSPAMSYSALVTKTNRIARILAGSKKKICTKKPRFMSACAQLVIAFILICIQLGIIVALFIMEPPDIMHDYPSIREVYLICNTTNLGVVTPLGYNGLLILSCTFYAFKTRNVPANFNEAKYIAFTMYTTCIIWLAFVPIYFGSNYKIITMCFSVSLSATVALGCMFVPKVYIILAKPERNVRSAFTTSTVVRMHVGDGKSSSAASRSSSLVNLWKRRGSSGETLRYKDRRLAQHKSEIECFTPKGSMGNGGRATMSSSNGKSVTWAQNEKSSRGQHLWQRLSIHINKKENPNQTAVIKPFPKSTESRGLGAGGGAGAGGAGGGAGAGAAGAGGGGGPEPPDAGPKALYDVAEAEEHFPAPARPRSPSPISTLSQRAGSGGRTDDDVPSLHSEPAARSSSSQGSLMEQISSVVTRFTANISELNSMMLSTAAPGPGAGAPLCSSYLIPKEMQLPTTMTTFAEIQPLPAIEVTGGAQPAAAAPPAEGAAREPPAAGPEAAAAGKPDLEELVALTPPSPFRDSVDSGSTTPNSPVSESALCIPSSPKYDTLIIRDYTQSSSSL

**Q.** With Cc1ccc(C#CC(=O)NC2CCN(c3ncc(C)s3)C2)cc1 (stereo not drawn) [Example 73, N-(1-(5-methylthiazol-2-yl)pyrrolidin-3-yl)-3-p-tolylpropiolamide] as the molecule, how does the inhibition at 1 µM read?
**A.** Its inhibition at 1 µM is 18%.

**Q.** Cc1cccc(C#CC(=O)NC2CCN(c3ncc(C)s3)C2)c1 (stereo not drawn) [Example 74, N-(1-(5-methylthiazol-2-yl)pyrrolidin-3-yl)-3-m-tolylpropiolamide] was tested. Which inhibition at 1 µM did it give?
**A.** Its inhibition at 1 µM is 89%.

**Q.** For Cc1cnc(N2CCC(NC(=O)C#Cc3ccccc3)C2)s1 (stereo not drawn) [Example 76, N-(1-(5-methylthiazol-2-yl)pyrrolidin-3-yl)-3-phenylpropiolamide], which inhibition at 1 µM is on record?
**A.** Its inhibition at 1 µM is 56%.

**Q.** For Cc1cnc(N2CCC(NC(=O)C#Cc3ccccc3F)C2)s1 (stereo not drawn) [Example 77, 3-(2-fluorophenyl)-N-(1-(5-methylthiazol-2-yl)pyrrolidin-3-yl)propiolamide], which inhibition at 1 µM is on record?
**A.** Its inhibition at 1 µM is 21%.

**Q.** COc1cccc(C#CC(=O)NC2CCN(c3ncc(C)s3)C2)c1 (stereo not drawn) [Example 78, 3-(3-methoxyphenyl)-N-(1-(5-methylthiazol-2-yl)pyrrolidin-3-yl)propiolamide] was tested. Which inhibition at 1 µM did it give?
**A.** The inhibition at 1 µM was 26%.

**Q.** Cc1cnc(N2CCC(NC(=O)C#Cc3cccc(F)c3)C2)s1 (stereo not drawn) [Example 81, 3-(3-fluorophenyl)-N-(1-(5-methylthiazol-2-yl)pyrrolidin-3-yl)propiolamide] was tested. Which inhibition at 1 µM did it give?
**A.** Its inhibition at 1 µM is 57%.

**Q.** How did the inhibition at 1 µM turn out when Cc1cccc(C#CC(=O)NC2CCN(c3nc(C)c(C)s3)C2)c1 (stereo not drawn) [Example 82, N-(1-(4,5-dimethylthiazol-2-yl)pyrrolidin-3-yl)-3-m-tolylpropiolamide] was run?
**A.** Its inhibition at 1 µM is 81%.

**Q.** Which inhibition at 1 µM does the source give for Cc1nc(N2CCC(NC(=O)C#Cc3cccc(C(F)(F)F)c3)C2)sc1C (stereo not drawn) [Example 85, N-(1-(4,5-dimethylthiazol-2-yl)pyrrolidin-3-yl)-3-(3-(trifluoromethyl)phenyl)-propiolamide] here?
**A.** Its inhibition at 1 µM is 41%.

**Q.** With Cc1cnc(N2CCC(NC(=O)C#Cc3cccc(C(F)(F)F)c3)C2)s1 (stereo not drawn) [Example 87, N-(1-(5-methylthiazol-2-yl)pyrrolidin-3-yl)-3-(3-(trifluoromethyl)phenyl)-propiolamide] as the molecule, how does the inhibition at 1 µM read?
**A.** Its inhibition at 1 µM is 23%.

**Q.** COc1cccc(C#CC(=O)NC2CCN(c3nc(C)c(C)s3)C2)c1 (stereo not drawn) [Example 90, N-(1-(4,5-dimethylthiazol-2-yl)pyrrolidin-3-yl)-3-(3-methoxyphenyl)propiolamide] was tested. Which inhibition at 1 µM did it give?
**A.** The inhibition at 1 µM was 34%.

**Q.** Cc1cccc(C#CC(=O)NC2CCN(c3nc(C(C)(C)C)cs3)C2)c1 (stereo not drawn) [Example 99, N-(1-(4-tert.-butylthiazol-2-yl)pyrrolidin-3-yl)-3-m-tolylpropiolamide] was tested. Which inhibition at 1 µM did it give?
**A.** The inhibition at 1 µM was 46%.

**Q.** For CC(C)(C)c1csc(N2CCC(NC(=O)C#Cc3cccc(Cl)c3)C2)n1 (stereo not drawn) [Example 100, N-(1-(4-tert.-butylthiazol-2-yl)pyrrolidin-3-yl)-3-(3-chlorophenyl)propiolamide], which inhibition at 1 µM is on record?
**A.** The inhibition at 1 µM was 38%.

**Q.** With Cc1cnc(N2CCC(NC(=O)C#Cc3cccc(Cl)c3)C2)s1 (stereo not drawn) [Example 112, 3-(3-chlorophenyl)-N-(1-(5-methylthiazol-2-yl)pyrrolidin-3-yl)propiolamide] as the molecule, how does the inhibition at 1 µM read?
**A.** Its inhibition at 1 µM is 24%.

same assay, conditions: 10 μM test compound, 5 nM [^3H]-MPEP

**Q.** How did the inhibition at 10 µM turn out when Cc1csc(N2CCC(NC(=O)C#Cc3cccc(Cl)c3)C2)n1 (stereo not drawn) [Example 105, 3-(3-chlorophenyl)-N-(1-(4-methylthiazol-2-yl)pyrrolidin-3-yl)propiolamide] was run?
**A.** Its inhibition at 10 µM is 83%.

**Q.** Cc1csc(N2CCC(NC(=O)C#Cc3cccs3)C2)n1 (stereo not drawn) [Example 106, N-(1-(4-methylthiazol-2-yl)pyrrolidin-3-yl)-3-(thiophen-2-yl)propiolamide] was tested. Which inhibition at 10 µM did it give?
**A.** Its inhibition at 10 µM is 38%.

**Q.** Cc1nc(N2CCC(NC(=O)C#Cc3cccc(Cl)c3)C2)sc1C (stereo not drawn) [Example 110, 3-(3-chlorophenyl)-N-(1-(4,5-dimethylthiazol-2-yl)pyrrolidin-3-yl)propiolamide] was tested. Which inhibition at 10 µM did it give?
**A.** The inhibition at 10 µM was 63%.

**Q.** For Cc1cnc(N2CCC(NC(=O)C#Cc3cccs3)C2)s1 (stereo not drawn) [Example 113, N-(1-(5-methylthiazol-2-yl)pyrrolidin-3-yl)-3-(thiophen-2-yl)propiolamide], which inhibition at 10 µM is on record?
**A.** The inhibition at 10 µM was 22%.

**Q.** For Cc1cnc(N2CCC(NC(=O)C#Cc3ccccn3)C2)s1 (stereo not drawn) [Example 119, N-(1-(5-methylthiazol-2-yl)pyrrolidin-3-yl)-3-(pyridin-2-yl)propiolamide], which inhibition at 10 µM is on record?
**A.** The inhibition at 10 µM was 20%.
